Experimental findings from patent US9693992B2 (MannKind Corporation, priority 2010, dated 2017) are described below.

For the first assay, the system named is XBP-1 splicing. In words: XBP-1 splicing inhibition in livers and kidneys of CB17 SCID mice after tunicamycin. The class given is in vivo. To be noted: 1 mg/kg IP, alone, relative to PBS treated mice. The text has this: The preclinical validation strategy employs a set of animal models representing normal tissues under chemical stress and multiple myeloma xenographs. The normal animal model is employed as a surrogate model where dose-related on-target activity of compounds can be confirmed in tissues sensitive to standard UPR inducing agents such as tunicamycin (Wu et al., Dev Cell. 2007 September; 13(1d):351-64). […] Upon induction with tunicamycin, tissues induce active XBP-1 mRNA splicing, and this activity is suppressed by IRE-1α inhibitors. This on-target ER stress animal model is a useful screening and early pharmacokinetic tool.
CB17 SCID mice were treated with 1 mg/kg tunicamycin by intraperitoneal (IP) injection at time 0 (T=0). Two hours later, compound A formulated in 10% hydroxy beta propyl cyclo dextran HBPCD was administered by IP injection. Doses were 50 mg/kg, 25 mg/kg and 10 mg/kg (4 mice in each group). Mice were sacrificed two hours later (4 hours from T=0), and the designated organs were harvested (FIG. 3A).
RT-PCR analysis was performed using murine-specific XBP-1 primers from total RNA harvested from specified organs. […] Each lane represents an individual mouse where RNA was harvested and RT-PCR was performed. Method of RNA extraction and RT-PCR analysis is described in Volkmann et al., J. Biol. Chem. 286, 12743-55, 2011. […]
Consider tunicamycin, for which the “induction of XBP-1s” value was “induces XBP-1 spliced”.

The target of a further assay is IRE-1α (Homo sapiens (Human), UniProt O75460). Kind of assay: Cellular EC50: endogenous XBP-1 splicing in myeloma cells (MM.1s, DTT stress, RT-PCR). In kind it is cell-based. Conditions: average cellular EC50, XBP-1 splicing in myeloma cells.
Chain of IRE-1α (O75460 19-977): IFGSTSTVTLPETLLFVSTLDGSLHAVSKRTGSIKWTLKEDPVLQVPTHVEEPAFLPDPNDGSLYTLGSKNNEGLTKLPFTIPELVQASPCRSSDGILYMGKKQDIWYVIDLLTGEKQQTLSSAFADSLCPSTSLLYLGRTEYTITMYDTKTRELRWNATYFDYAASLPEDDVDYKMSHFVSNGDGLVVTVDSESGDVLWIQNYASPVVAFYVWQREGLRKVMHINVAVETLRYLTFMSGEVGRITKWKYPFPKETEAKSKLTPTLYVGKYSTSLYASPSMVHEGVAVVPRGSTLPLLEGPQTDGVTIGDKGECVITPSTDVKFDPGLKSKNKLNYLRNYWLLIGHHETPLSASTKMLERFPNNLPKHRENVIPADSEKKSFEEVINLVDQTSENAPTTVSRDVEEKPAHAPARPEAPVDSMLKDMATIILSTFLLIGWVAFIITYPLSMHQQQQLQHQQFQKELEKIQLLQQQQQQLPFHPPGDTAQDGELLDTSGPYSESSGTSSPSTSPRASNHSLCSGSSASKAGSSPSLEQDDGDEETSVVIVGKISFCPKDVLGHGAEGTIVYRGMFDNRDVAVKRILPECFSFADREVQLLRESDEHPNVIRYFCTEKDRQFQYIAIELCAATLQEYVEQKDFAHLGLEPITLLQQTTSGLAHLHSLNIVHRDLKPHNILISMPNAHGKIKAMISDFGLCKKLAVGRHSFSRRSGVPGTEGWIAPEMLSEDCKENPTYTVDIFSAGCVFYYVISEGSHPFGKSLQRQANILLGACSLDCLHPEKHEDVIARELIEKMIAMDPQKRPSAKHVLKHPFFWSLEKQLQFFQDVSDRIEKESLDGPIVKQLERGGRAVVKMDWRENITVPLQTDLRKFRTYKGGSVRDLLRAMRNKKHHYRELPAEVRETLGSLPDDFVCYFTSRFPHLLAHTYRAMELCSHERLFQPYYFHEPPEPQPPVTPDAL
Consider `Cn1c(CCC(=O)O)nc2ccc(O)c(C=O)c21` [Example 240], for which the EC50 was over 10 µM. Regarding `COCCNC(=O)CCc1nc2c(C=O)c(O)ccc2n1C` [Example 241], the EC50 is over 10 µM. With `Cn1c(CCC(=O)N2CCOCC2)nc2c(C=O)c(O)ccc21` [Example 242], the EC50 was over 10 µM. Still for that read-out and setting: to `Cn1c(CCC(=O)NCCN2CCOCC2)nc2c(C=O)c(O)ccc21` [Example 243] belongs over 10 µM. Same read-out and setting: next, `CN1CCN(C(=O)CCc2nc3c(C=O)c(O)ccc3n2C)CC1` [Example 244]: over 10 µM; `CCOC(=O)CCc1nc2c(C=O)c(O)ccc2n1C` [Example 245]: under 10 µM. Still for that read-out and setting: to `Cn1c(CCC(=O)O)nc2c(C=O)c(O)ccc21` [Example 246] belongs over 10 µM; to `CCOC(=O)CCc1nc2c(C=O)c(O)ccc2o1` [Example 247], over 10 µM; to `O=Cc1c(O)ccc2oc(CCC(=O)O)nc12` [Example 248], over 10 µM.

For `COCCNC(=O)CCc1nc2c(C=O)c(O)ccc2o1` [Example 249], the EC50 is over 10 µM.

`O=Cc1c(O)ccc2oc(CCC(=O)N3CCOCC3)nc12` [Example 250] registered an EC50 of over 10 µM. Still for that read-out and setting: next, `CN1CCN(C(=O)CCc2nc3c(C=O)c(O)ccc3o2)CC1` [Example 251]: over 10 µM; `CCNC(=O)CCc1nc2c(C=O)c(O)ccc2o1` [Example 252]: over 10 µM; `O=Cc1c(O)ccc2oc(CCC(=O)NCCN3CCOCC3)nc12` [Example 253]: under 10 µM. `CC(C(=O)N1CCOCC1)c1nc2c(C=O)c(O)ccc2o1` (stereo not drawn) [Example 254]: the EC50 is over 10 µM.

`Cc1nc2c(C=O)c(O)ccc2o1` [Example 255] gave a half-maximal effective concentration (EC50) of under 10 µM. The same measure, in the same setting: next, `Cc1nc2ccc(O)c(C=O)c2o1` [Example 256]: over 10 µM; `O=Cc1c(O)ccc2ocnc12` [Example 257]: over 10 µM. As for `COCCNC(=O)c1cc2c(C=O)c(O)ccc2s1` [Example 258], the EC50 is over 10 µM.

Consider `O=Cc1c(O)ccc2sc(C(=O)N3CCOCC3)cc12` [Example 259], for which the EC50 is over 10 µM.

Turning to `CN1CCN(C(=O)c2cc3c(C=O)c(O)ccc3s2)CC1` [Example 260], the EC50 was over 10 µM.

With `CCNC(=O)c1cc2c(C=O)c(O)ccc2s1` [Example 261], the EC50 was under 10 µM. Still for that read-out and setting: to `O=Cc1c(O)ccc2sc(C(=O)NCCN3CCOCC3)cc12` [Example 262] belongs under 10 µM. As to `CN(C)CCNC(=O)c1cc2c(C=O)c(O)ccc2s1` [Example 263], the concentration for a half-maximal effect (EC50) is over 10 µM. The compound `COC(=O)Cc1cc2c(C=O)c(O)ccc2s1` [Example 264] had a concentration giving a half-maximal response (EC50) of over 10 µM. Same read-out and setting: to `O=Cc1c(O)ccc2sc(CC(=O)O)cc12` [Example 265] belongs over 10 µM; to `COCCNC(=O)CCc1cc2c(C=O)c(O)ccc2s1` [Example 266], under 10 µM. The same measure, in the same setting: next, `CCOC(=O)CCc1cc2c(C=O)c(O)ccc2s1` [Example 267]: over 10 µM; `O=Cc1c(O)ccc2sc(CCC(=O)N3CCOCC3)cc12` [Example 268]: over 10 µM. The same measure, in the same setting: to `CCNC(=O)CCc1cc2c(C=O)c(O)ccc2s1` [Example 269] belongs over 10 µM; to `CN(C)CCNC(=O)CCc1cc2c(C=O)c(O)ccc2s1` [Example 271], under 10 µM. `COCCNC(=O)c1cc2c(C=O)c(O)ccc2[nH]1` [Example 273] registered an EC50 of over 10 µM. Still for that read-out and setting: next, `O=Cc1c(O)ccc2[nH]c(C(=O)N3CCOCC3)cc12` [Example 274]: over 10 µM; `CN1CCN(C(=O)c2cc3c(C=O)c(O)ccc3[nH]2)CC1` [Example 275]: over 10 µM. Still for that read-out and setting: next, `CCNC(=O)c1cc2c(C=O)c(O)ccc2[nH]1` [Example 276]: over 10 µM; `O=Cc1c(O)ccc2[nH]c(C(=O)NCCN3CCOCC3)cc12` [Example 277]: over 10 µM; `CN(C)CCNC(=O)c1cc2c(C=O)c(O)ccc2[nH]1` [Example 278]: over 10 µM. The same measure, in the same setting: next, `CCOC(=O)c1cc2c(C=O)c(O)ccc2[nH]1` [Example 279]: over 10 µM; `CCOC(=O)c1cc2c(C=O)c(O)ccc2o1` [Example 280]: over 10 µM; `O=Cc1c(O)ccc2oc(C(=O)O)cc12` [Example 281]: over 10 µM. As for `COCCNC(=O)c1cc2c(C=O)c(O)ccc2o1` [Example 282], the EC50 was over 10 µM. The same measure, in the same setting: next, `O=Cc1c(O)ccc2oc(C(=O)N3CCOCC3)cc12` [Example 283]: over 10 µM; `CN1CCN(C(=O)c2cc3c(C=O)c(O)ccc3o2)CC1` [Example 284]: over 10 µM; `CCNC(=O)c1cc2c(C=O)c(O)ccc2o1` [Example 285]: under 10 µM.

For `O=Cc1c(O)ccc2oc(C(=O)NCCN3CCOCC3)cc12` [Example 286], the 50% effective concentration (EC50) was under 10 µM.

The test system of the next assay is XBP-1 splicing. In words: Inhibition of endogenous XBP-1 splicing in RPMI 8226 cells with thapsigargin (RT-PCR). In kind it is cell-based, human. To be noted: 300 nM, 2 hours. Here is the method:
PCR amplification products were run on a 4% agarose gel and stained with ethidium bromide. The inverse image is shown.
RPMI 8226 cells were grown in monolayer culture using Dulbecco's Modified Eagle Medium (DMEM) supplemented with 10% fetal calf serum (FCS) at 37° C. and 5% CO2. Compounds were kept as 10 mM stock in DMSO at −20° C. and diluted in medium to 10 μM. Thapsigargin (Tg) was resuspended in DMSO and diluted in medium.
Procedures for measuring XBP-1s and XBP-1u mRNAs have been described previously (Volkmann et al., J. Biol. Chem. 286, 12743-55, 2011). Briefly, total RNA was harvested from cells or tissue using TRIZOL® (Invitrogen) according to the manufacture's procedures. After ethanol precipitation and resuspension of the RNA, RIBOGREEN® (Invitrogen) was used to quantify the yield- and normalize the RNA concentration in the source tube containing isolated RNA. RT-PCR was performed by oligo dT priming, […]® II (Invitrogen) and reverse transcription using the […] GOLD® Kit (Applied Biosystems) according to the manufacturer's protocols. Primers for human XBP-1 were
All DNA oligos were purchased from IDT DNA Technologies. PCR reactions were run on a Bio-Rad PTC-100® 96-well thermocycler; heating at 94° C. for 30 seconds, annealing at 58° C. for 30 seconds polymerizing at 72° C. for 30 seconds for 35 cycles.
Consider `C/C=C(/C)C(=O)O[C@H]1C(C)=C2[C@H]([C@@H]1OC(=O)CCCCCCC)[C@@](C)(OC(C)=O)C[C@H](OC(=O)CCC)[C@@]1(O)[C@H]2OC(=O)[C@@]1(C)O` [Thapsigargin], for which the “conversion of XBP-1u to XBP-1s” value is “near complete conversion of XBP-1u to XBP-1s”.

A further assay relates to human myeloma RPMI8226 tumor xenografts. In words: RPMI8226 xenograft efficacy model. The class given is in vivo, SCID mice. To be noted: after cessation of therapy. The method, then:
SCID mice are evaluated for their ability to support implantation of desired tumor cells in support of model development and characterization. Mice are injected intravenously […] or implanted either subcutaneously (SC) or intraperitoneally (IP). To generate a relevant animal model mimicking human disease, it is desirable that all three approaches are evaluated for improved implantation rates and relevant disease progression, as is well known in the art. SC injections provide an easy way to measure tumor growth and efficacy, and IV and IP injections represent a more physiologically relevant model of human tumor spread. SC injections are given primarily in the flank, while IV injections are administered in the tail vein. Mice are manually restrained for SC and IP injections, and a Broome mouse restrainer is used for IV injections.
SCID mice are implanted with tumor cells (human RPMI8226 myeloma cells) via IP, IV or SC routes based on the results from the xenograft model development studies (above). Mice are treated with compound or mock treated (vehicle) for a period of up to 4-5 weeks. Compound administration can be via IV, IP, PO or SC routes. […]
Mice are monitored for tumor growth, regression and general health. […] Tumor growth is measured by calipers, ultrasound, or by abdominal lavage. Biomarkers in the blood or tumor can evaluated (primarily XBP-1 splicing). […]
`CC(C)C[C@H](NC(=O)[C@H](Cc1ccccc1)NC(=O)c1cnccn1)B(O)O` [bortezomib, [(1R)-3-methyl-1-[[(2S)-1-oxo-3-phenyl-2-[(pyrazinylcarbonyl)amino]propyl]amino]butyl]boronic acid]: the tumor recurrence entry is “tumors often recurred and grew into large masses”.
